US20170239330A1, “FORMULATIONS FOR HISTATIN THERAPEUTICS” (RAPID PATHOGEN SCREENING, INC., priority 2014, published 2017)

What was measured:
[1] = test system: cultured ocular epithelial cells; settings: in vitro; cited from earlier work
[2] = Stability of ocular histatin formulation determined by mass spectroscopy; format: physicochemical; settings: 100 μg/mL in gel tears lubricating eye drop with 0.25% PEG in aqueous buffered borate salt solution
Experimental: In some embodiments, the ocular histatin formulation is stable both at room temperature (25° C.) and at 45° C. for at least 90 days.

Substance	Cytotoxicity to cultured ocular epithelial cells [1]	Time formulation found stable, by mass spectroscopy ([2]; 25° C.)	Time formulation found stable, by mass spectroscopy ([2]; 45° C.)
Benzalkonium chloride	significant cytotoxicity	–	–
cyclo(DNLPETGGDSHEKRHHGYRRKFHEKHHSHREFPFYGDYGSNYLY) [cyclized histatin 1]	–	at least 505 days	at least 90 days
